# Patent publication US20140155406A1, “4-IMIDAZOPYRIDAZIN-1-YL-BENZAMIDES AND 4-IMIDAZOTRIAZIN-1-YL-BENZAMIDES BTK INHIBITORS” (priority 2011, published 2014)
# pEC50: −log10 of the molar value.
# Tests used:
# Btk enzyme (His-Btk) = molecular target: T1, Btk enzyme (His-Btk) (Homo sapiens, UniProt Q06187); assay: Btk enzyme activity, IMAP fluorescence polarization assay; type: biochemical; settings: 60 min pre-incubation, 5 μM ATP (Km)
# T1 construct: His; purchased Millipore 14-552
# Text: Inhibition of kinase activity can be measured using the Immobilized Metal Assay for Phosphochemicals (IMAP) assay. IMAP is a homogeneous fluorescence polarization (FP) assay based on affinity capture of phosphorylated peptide substrates. IMAP uses fluorescein-labeled peptide substrates that, upon phosphorylation by a protein kinase, bind to so-called IMAP nanoparticles, which are derivatized with trivalent metal complexes. Binding causes a change in the rate of the molecular motion of the peptide, and results in an increase in the FP value observed for the fluorescein label attached to the substrate peptide (Gaudet et al. A homogeneous fluorescence polarization assay adaptable for a range of protein serine/threonine and tyrosine kinases. J. Biomol. Screen (2003) 8, 164-175).
# Btk enzyme activity is measured using the IMAP (immobilized metal ion affinity-based fluorescence polarization) assay as outlined below.
# Btk enzyme (His-Btk (Millipore catalog#14-552), is diluted to 0.4 U/mL in KR buffer (10 mM Tris-HCl, 10 mM MgCl2, 0.01% Tween-20, 0.05% NaN3, 1 mM DTT, 2 mM MnCl2, pH 7.2).
# Serial dilution log 10 from 2 mM to 63.2 nM of test compounds are made in 100% DMSO. The dilutions in DMSO are then diluted 50-fold in KR-buffer. Final compound concentration range in the assay from 10 μM to 0.316 nM.
# 5 μL/well of test compound in KR buffer (final DMSO concentration in the assay is 1%) is mixed with 5 μl/well of 0.4 U/mL Btk enzyme (final concentration in the assay is 0.1 U/mL). Test compounds and Btk enzyme are pre-incubated 60 minutes at room temperature, before adding 5 μL/well of 200 nM Fluorescin labeled substrate peptide (Blk/Lyntide substrate, e.g. #R7188/#R7233, Molecular Devices) in KR-buffer. Final peptide substrate concentration in assay is 50 nM. The kinase assay is started by adding 5 μL/well of 20 μM ATP in KR-buffer (final ATP concentration is 5 μM ATP, Km ATP in Btk IMAP assay). Following incubation for 2 h at room temperature the enzyme reaction is stopped by adding 40 μL/well IMAP Progressive Binding Solution (according to suppliers (Molecular Devices) protocol using 75% 1× buffer A and 25% 1× buffer B with 1:600 Progressive Binding Solution). After 60 min incubation at room temperature in the dark the FP signal is read. Fluorescence at 535 nm is measured using parallel and perpendicular filters to determine differences in rotation due to binding of the phosphorylated substrate peptide to the beads. Values are calculated as percentage of the difference in readout (ΔmPi) of the controls with and without ATP. EC50 values are determined by curve fitting of the experimental results using Activity Base.
# Lck enzyme = molecular target: T2, Lck enzyme (Homo sapiens, UniProt P06239); assay: Lck enzyme activity, IMAP fluorescence polarization assay; type: biochemical; settings: 60 min pre-incubation, 6 μM ATP (Km)
# T2 construct: purchased Millipore 14-442
# T2 sequence (P06239 whole entry): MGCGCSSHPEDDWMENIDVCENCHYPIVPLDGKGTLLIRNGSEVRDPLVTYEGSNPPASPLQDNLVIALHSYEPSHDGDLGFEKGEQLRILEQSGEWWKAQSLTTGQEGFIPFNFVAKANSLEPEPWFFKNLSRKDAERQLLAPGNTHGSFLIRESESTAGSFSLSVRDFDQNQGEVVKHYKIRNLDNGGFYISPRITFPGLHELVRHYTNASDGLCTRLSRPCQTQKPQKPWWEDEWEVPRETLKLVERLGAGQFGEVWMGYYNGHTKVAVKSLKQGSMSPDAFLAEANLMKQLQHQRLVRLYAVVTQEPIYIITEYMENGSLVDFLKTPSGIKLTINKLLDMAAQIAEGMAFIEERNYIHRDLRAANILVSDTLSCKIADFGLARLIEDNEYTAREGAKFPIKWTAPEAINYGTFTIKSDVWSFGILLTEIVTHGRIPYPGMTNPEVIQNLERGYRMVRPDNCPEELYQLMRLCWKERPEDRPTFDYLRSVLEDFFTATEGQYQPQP
# Method: Lck enzyme activity is measured using the IMAP (immobilized metal ion affinity-based fluorescence polarization) assay as outlined below.
# Lck enzyme (Millipore catalog#14-442), is diluted to 0.4 U/mL in KR buffer (10 mM Tris-HCl, 10 mM MgCl2, 0.01% Tween-20, 0.05% NaN3, 1 mM DTT, 2 mM MnCl2, pH 7.2). Serial dilution log 10 from 2 mM to 63.2 nM of test compounds are made in 100% DMSO. The dilutions in DMSO are then diluted 50-fold in KR-buffer of which 5 μl is used in the assay, leading to a final compound concentration range in the assay from 10 μM to 0.316 nM. 5 μL/well of test compound in KR buffer (final DMSO concentration in the assay is 1%) is mixed with 5 μl/well of 0.4 U/mL Lck enzyme (final concentration in the assay is 0.1 U/mL). Test compounds and Lck enzyme are pre-incubated 60 minutes at room temperature, before adding 5 μL/well of 400 nM Fluorescin labeled substrate peptide (p34cdc2 substrate peptide, e.g. #R7157/#R7172, Molecular Devices) in KR-buffer. Final peptide substrate concentration in assay is 100 nM. The kinase assay is started by adding 5 μL/well of 24 μM ATP in KR-buffer (final ATP concentration is 6 μM ATP, Km ATP in Lck IMAP assay). Following incubation for 2 h at room temperature the enzyme reaction is stopped by adding 40 μL/well IMAP Progressive Binding Solution (according to suppliers (Molecular Devices) protocol using 75% 1× buffer A and 25% 1× buffer B with 1:600 Progressive Binding Solution). After 60 min incubation at room temperature in the dark the FP signal is read. Fluorescence at 535 nm is measured using parallel and perpendicular filters to determine differences in rotation due to binding of the phosphorylated substrate peptide to the beads. Values are calculated as percentage of the difference in readout (ΔmPi) of the controls with and without ATP. EC50 values are determined by curve fitting of the experimental results using Activity Base.
# T1 sequence (Q06187 whole entry): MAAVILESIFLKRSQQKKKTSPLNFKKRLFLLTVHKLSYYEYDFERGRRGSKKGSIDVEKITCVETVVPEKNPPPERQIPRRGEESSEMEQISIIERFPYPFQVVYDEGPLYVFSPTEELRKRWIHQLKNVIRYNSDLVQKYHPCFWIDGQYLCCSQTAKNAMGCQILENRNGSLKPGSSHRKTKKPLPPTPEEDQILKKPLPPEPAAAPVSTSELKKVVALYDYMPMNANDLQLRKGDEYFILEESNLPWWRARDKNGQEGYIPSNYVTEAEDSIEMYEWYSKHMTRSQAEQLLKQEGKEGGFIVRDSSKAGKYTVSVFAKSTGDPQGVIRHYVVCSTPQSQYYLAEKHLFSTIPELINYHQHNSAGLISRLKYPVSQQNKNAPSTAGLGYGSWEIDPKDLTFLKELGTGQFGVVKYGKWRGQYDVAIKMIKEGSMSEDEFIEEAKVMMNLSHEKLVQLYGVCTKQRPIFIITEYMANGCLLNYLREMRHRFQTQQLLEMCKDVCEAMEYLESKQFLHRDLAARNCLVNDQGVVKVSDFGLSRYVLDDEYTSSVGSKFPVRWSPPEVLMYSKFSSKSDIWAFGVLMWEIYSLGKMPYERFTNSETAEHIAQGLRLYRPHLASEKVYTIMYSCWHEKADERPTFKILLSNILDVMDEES
Structure (SMILES),EC50 (Btk enzyme (His-Btk); bin bounds given in nM) [nM],pEC50 (Lck enzyme),EC50 (Btk enzyme (His-Btk); bounds given in μM) [nM]
"C=CC(=O)N1CCCC[C@H]1c1nc(-c2ccc(C(=O)Nc3cc(CCC)ccn3)cc2)c2c(C)nccn12 [Example 2, (S)-4-(3-(1-Acryloylpiperidin-2-yl)-8-methylimidazo[1,5-a]pyrazin-1-yl)-N-(4-propylpyridin-2-yl)benzamide]",< 10,≤ 6.00,
"CCCc1ccnc(NC(=O)c2ccc(-c3nc([C@@H]4CCCCN4C(=O)/C=C/CN(C)C)n4ccnc(C)c34)cc2)c1 [Example 3, (S,E)-4-(3-(1-(4-(Dimethylamino)but-2-enoyl)piperidin-2-yl)-8-methylimidazo[1,5-a]pyrazin-1-yl)-N-(4-propylpyridin-2-yl)benzamide]",< 10,≤ 6.00,
"C=CS(=O)(=O)N1CCCC[C@H]1c1nc(-c2ccc(C(=O)Nc3cc(CCC)ccn3)cc2)c2c(C)nccn12 [Example 4, (S)-4-(8-Methyl-3-(1-(vinylsulfonyl)piperidin-2-yl)imidazo[1,5-a]pyrazin-1-yl)-N-(4-propylpyridin-2-yl)benzamide]",< 10,≤ 6.00,
"COC/C=C/C(=O)N[C@@H](C)c1nc(-c2ccc(C(=O)Nc3cc(C(F)(F)F)ccn3)cc2)c2c(C)nccn12 [Example 6, (S,E)-4-(3-(1-(4-Methoxybut-2-enamido)ethyl)-8-methylimidazo[1,5-a]pyrazin-1-yl)-N-(4-(trifluoromethyl)pyridin-2-yl)benzamide]",< 10,≤ 6.00,
"CC#CC(=O)N[C@@H](C)c1nc(-c2ccc(C(=O)Nc3cc(C(F)(F)F)ccn3)cc2)c2c(C)nccn12 [Example 7, (S)-4-(3-(1-But-2-ynamidoethyl)-8-methylimidazo[1,5-a]pyrazin-1-yl)-N-(4-(trifluoromethyl)pyridin-2-yl)benzamide]",< 10,≤ 6.00,
"C=CC(=O)N[C@@H](C)c1nc(-c2ccc(C(=O)Nc3cc(C(F)(F)F)ccn3)cc2)c2c(C)nccn12 [Example 8, (S)-4-(3-(1-Acrylamidoethyl)-8-methylimidazo[1,5-a]pyrazin-1-yl)-N-(4-(trifluoromethyl)pyridin-2-yl)benzamide]",< 10,≤ 6.00,
"C=CC(=O)N1CCC[C@H]1c1nc(-c2ccc(C(=O)Nc3cc(CCC)ccn3)cc2)c2c(C)nccn12 [Example 9, (S)-4-(3-(1-Acryloylpyrrolidin-2-yl)-8-methylimidazo[1,5-a]pyrazin-1-yl)-N-(4-propylpyridin-2-yl)benzamide]",< 10,≤ 6.00,
"C=CC(=O)N1CCC[C@H]1c1nc(-c2ccc(C(=O)Nc3cc(C(F)(F)F)ccn3)cc2)c2c(C)nccn12 [Example 10, (S)-4-(3-(1-Acryloylpyrrolidin-2-yl)-8-methylimidazo[1,5-a]pyrazin-1-yl)-N-(4-(trifluoromethyl)pyridin-2-yl)benzamide]",< 10,≤ 6.00,
"C=CC(=O)N1CCC[C@H]1c1nc(-c2ccc(C(=O)Nc3cc(C#N)ccn3)cc2)c2c(C)nccn12 [Example 13, (S)-4-(3-(1-Acryloylpyrrolidin-2-yl)-8-methylimidazo[1,5-a]pyrazin-1-yl)-N-(4-cyanopyridin-2-yl)benzamide]",< 10,≤ 6.00,

# Second part, the compound after the results:
EC50 (Btk enzyme (His-Btk); bin bounds given in nM) [nM],pEC50 (Lck enzyme),EC50 (Btk enzyme (His-Btk); bounds given in μM) [nM],Structure (SMILES)
≥ 100,≤ 6.00,< 1000,"CC#CC(=O)N1CCC[C@H]1c1nc(-c2ccc(C(=O)Nc3cc(C)ccn3)cc2)c2c(C)nccn12 [Example 15, (S)-4-(3-(1-but-2-ynoylpyrrolidin-2-yl)-8-methylimidazo[1,5-a]pyrazin-1-yl)-N-(4-methylpyridin-2-yl)benzamide]"
< 10,≤ 6.00,,"CCCc1ccnc(NC(=O)c2ccc(-c3nc([C@H](C)N(C)C(=O)/C=C/CN(C)C)n4ccnc(C)c34)cc2)c1 [Example 18, (S,E)-4-(3-(1-(4-(dimethylamino)-N-methylbut-2-enamido)ethyl)-8-methylimidazo[1,5-a]pyrazin-1-yl)-N-(4-propylpyridin-2-yl)benzamide]"
< 10,≤ 6.00,,"C=CC(=O)N1CCC[C@H]1c1nc(-c2ccc(C(=O)Nc3ccccn3)cc2)c2c(C)nccn12 [Example 19, (S)-4-(3-(1-acryloylpyrrolidin-2-yl)-8-methylimidazo[1,5-a]pyrazin-1-yl)-N-(pyridin-2-yl)benzamide]"
< 10,≤ 6.00,,"Cc1nccn2c([C@@H]3CCCCN3C(=O)/C=C/CN3CCCC3)nc(-c3ccc(C(=O)Nc4cc(C(F)(F)F)ccn4)cc3)c12 [Example 21, (S,E)-4-(8-methyl-3-(1-(4-(pyrrolidin-1-yl)but-2-enoyl)piperidin-2-yl)imidazo[1,5-a]pyrazin-1-yl)-N-(4-(trifluoromethyl)pyridin-2-yl)benzamide]"
< 10,≤ 6.00,,"CC#CC(=O)N1CCCC[C@H]1c1nc(-c2ccc(C(=O)Nc3cc(CCC)ccn3)cc2)c2c(C)nccn12 [Example 22, (S)-4-(3-(1-but-2-ynoylpiperidin-2-yl)-8-methylimidazo[1,5-a]pyrazin-1-yl)-N-(4-propylpyridin-2-yl)benzamide]"
< 10,≤ 6.00,,"C=CC(=O)N[C@@H](C)c1nc(-c2ccc(C(=O)Nc3cc(CCC)ccn3)cc2)c2c(C)nccn12 [Example 23, (S)-4-(3-(1-acrylamidoethyl)-8-methylimidazo[1,5-a]pyrazin-1-yl)-N-(4-propylpyridin-2-yl)benzamide]"
< 10,≤ 6.00,,"CC#CC(=O)N(C)[C@@H](C)c1nc(-c2ccc(C(=O)Nc3cc(CCC)ccn3)cc2)c2c(C)nccn12 [Example 24, (S)-4-(8-methyl-3-(1-(N-methylbut-2-ynamido)ethyl)imidazo[1,5-a]pyrazin-1-yl)-N-(4-propylpyridin-2-yl)benzamide]"
≥ 100,≤ 6.00,< 1000,"Cc1nccn2c([C@@H]3CCCN3C(=O)/C=C/CN3CCCC3)nc(-c3ccc(C(=O)Nc4ccccn4)cc3)c12 [Example 25, (S,E)-4-(8-methyl-3-(1-(4-(pyrrolidin-1-yl)but-2-enoyl)pyrrolidin-2-yl)imidazo[1,5-a]pyrazin-1-yl)-N-(pyridin-2-yl)benzamide]"
< 10,≤ 6.00,,"C=CC(=O)N1CCCC[C@H]1c1nc(-c2ccc(C(=O)Nc3cc(C(F)(F)F)ccn3)cc2)c2c(C)nccn12 [Example 27, (S)-4-(3-(1-acryloylpiperidin-2-yl)-8-methylimidazo[1,5-a]pyrazin-1-yl)-N-(4-(trifluoromethyl)pyridin-2-yl)benzamide]"
< 10,≤ 6.00,,"CCCc1ccnc(NC(=O)c2ccc(-c3nc([C@H](C)NC(=O)/C=C/CN(C)C)n4ccnc(C)c34)cc2)c1 [Example 28, (S,E)-4-(3-(1-(4-(dimethylamino)but-2-enamido)ethyl)-8-methylimidazo[1,5-a]pyrazin-1-yl)-N-(4-propylpyridin-2-yl)benzamide]"
